Reference: patent publication US20060270727A1, “Small molecule therapeutics and uses therefor” (priority 2005, published 2006)

Columns and labels:
Format in all cases: cell-based, human
[1] = test system: GM15850 FRDA lymphoid cells; assay: DNA microarray of global gene expression, FRDA cells; settings: for number of genes with affected mRNA levels: P≦0.005; for gene expression profile approaching that of untreated GM15851 cells, in words: FA1 at 1 μM, FA2 at 2 μM
Procedure: (§1) Effects of Polyamides on Global Gene Expression. DNA microarray analyses (see Example 10) were performed with RNA isolated from GM15850 FRDA and GM15851 normal lymphoid cells that were either untreated or treated with polyamides FA1 (at 1 and 2 μM) or FA2 (at 2 μM) for 7 days on Affymetrix Human Genome U133 Plus 2.0 GeneChips®. These chips contain […] oligonucleotides representing all or nearly all of the genes in the human genome). Experiments were conducted according to manufacturer guidelines. […] Although more genes were judged affected by FA1 at 1 μM than at 2 μM, this difference is largely due to genes whose mRNA levels change by less than […] in either direction, and thus are not highly significant. At 2 μM FA1, 15 genes were increased in expression by greater than 50% and one gene was decreased by 45%. […] For GM15851 cells, two genes were up regulated by FA1, and no genes were down regulated. (Note that the probability that the genes affected in GM15851 cells would be judged significant by chance at P≦0.005 is 0.8-1.0, based on analysis with BRB ArrayTools). […] Strikingly, binding sites for FA1 (5′-AAGAAGAAG-3′, SEQ ID NO: ______) are present in 18/20 genes whose mRNA levels are increased by 1.2-fold or greater in GM15850 cells, although this sequence would be expected to appear at random only once per 262,000 bp in genomic DNA.
(§2) DNA Microarrays. FRDA and control lymphoid cells (i.e., lines GM15850 and GM15851, respectively) were incubated with polyamides FA1 (at 1 or 2 μM) or FA2 (at 2 μM), or in the absence of polyamide, in triplicate for seven days prior to RNA purification and microarray analysis. Affymetrix U133A Plus 2.0 GeneChips® were hybridized in groups of eight for each of the three replicates. Raw GeneChip® data were normalized with RMAExpress (Bolstad et al., 2003, Bioinformatics 19:185-193) and the normalized data was filtered to remove probesets called absent on 24 of 24 chips from class comparisons. The Affymetrix probeset-level data was imported to BRB Arraytools (v3.3.0 Beta 3a) selecting the U133 chips used in the experiment and leaving all filters off. For class comparisons between groups of arrays, unpaired samples were used and the random variance model was selected, with the univariate significance threshold set to 0.005. The restrictions for the univariate test were maintained as the default values of 10 for the maximum number of false discovered genes, 0.1 for the maximum proportion of false discoveries, and a 90% confidence level. Because of poor data correlation in one set of replicates, class comparisons were performed using all chips for the control group versus two of the three replicates for the treatment group (i.e., five groups are the minimum number required for class comparisons).

[2] = test system: frataxin mRNA in GM15851 normal lymphoid cell line; assay: qRT-PCR of frataxin mRNA, normal cell line
Text: (§3) GAA Specific Polyamides Up Regulate Frataxin mRNA and Protein. To assess whether polyamides alleviate transcription inhibition caused by expanded GAA repeats in the frataxin gene, quantitative real time/reverse transcriptase PCR (qRT-PCR) was used to monitor frataxin mRNA levels in the GM15850 and GM15851 lymphoid cell lines described above; levels of glyceraldehyde 3-phosphate dehydrogenase (GAPDH) mRNA were used as an internal control for each RNA sample; see Example 8. No differences in GAPDH were found between the two cell lines. […] No changes in frataxin mRNA levels were observed on shorter incubation times.
Cell Culture. […] Cell growth and morphology were monitored by phase contrast microscopy and viability by trypan blue exclusion and an ATP assay (ApoSENSOR™, BioVision). […]
(§4) Real-Time Quantitative RT-PCR. Real-time quantitative RT-PCR (qRT-PCR) analysis was performed essentially as previously described (Chuma, et al., 2003, Hepatology 37:198-207), using the following primers for the frataxin gene: […]
(§5) RNA was standardized by quantification of GAPDH mRNA (Pattyn et al., 2003, Nucleic Acids Res. 31:122-123), and all values are expressed relative to GAPDH. qRT-PCR was performed using iScript One-Step RT-PCR kit with SYBR green (Biorad). Statistical analysis was performed on three independent quantitative RT-PCR experiments for each RNA sample.

[3] = test system: GM15851 normal lymphoid cells; assay: DNA microarray of global gene expression, normal cells; settings: for number of genes with affected mRNA levels: P≦0.005
Procedure: as §1, §2

[4] = test system: frataxin mRNA in GM15850 FRDA lymphoid cell line; assay: qRT-PCR of frataxin mRNA, FRDA cell line; settings: for effect on frataxin mRNA levels, in words: GM15850 FRDA cell line, 7 days incubation
Text: as §3
Cell Culture. Epstein Barr virus transformed lymphoblast cell lines GM15850 from a FRDA patient (alleles with 650 and 1030 GAA repeats in the frataxin gene, from the Coriell Cell Repository, Camden, N.J.), and GM15851 from an unaffected sibling (normal range of repeats), were propagated in RMPI 1640 medium with 2 mM L-glutamine and 15% fetal bovine serum at 37° C. in 5% CO2. Cell growth and morphology were monitored by phase contrast microscopy and viability by trypan blue exclusion and an ATP assay (ApoSENSOR™, BioVision). Polyamides were added directly to the culture medium in PBS. Nuclear localization of the polyamides was verified by deconvolution microscopy, by methods well known in the art (see e.g., Dudouet et al., Chem. Biol., 2003, 10: 859-867).
as §4, §5

In the case of `CN(C)CCCNC(=O)CCNC(=O)c1nc(NC(=O)CCNC(=O)c2cc(NC(=O)c3nc(NC(=O)CCNC(=O)c4cc(NC(=O)c5nccn5C)cn4C)cn3C)cn2C)cn1C` [FA1, ImPyβImPyβImβDp], the “genes with comparable changes (>50% increase or 45% decrease) in mRNA levels” value ([1]; 1 μM) is reported as “three genes”, the “number of genes with affected mRNA levels” value (“number of genes” below) ([1]; 1 μM, 7 days) is reported as 51 genes and the “frataxin mRNA level as % of that found in GM15851 cells (microarray)” value ([1]; 2 μM) is reported as 42%. For the same compound, the “genes decreased in expression (by 45%)” value ([1]; 2 μM) was “one gene”, the “genes increased in expression by greater than 50%” value ([1]; 2 μM) was 15 genes and the “increase of frataxin mRNA (microarray)” value ([1]; 2 μM, 7 days) was 2.5 fold. For the same compound, the “number of genes” value ([1]; 2 μM, 7 days) was 16 genes, the “slope of gene expression profile correlation vs untreated GM15851 cells” value ([1]; 2 μM, untreated FRDA cells 0.97) was 0.69 and the “gene expression profile approaching that of untreated GM15851 cells, in words” value [1] was “seen to a lesser degree”. For the same compound, the “effect on frataxin mRNA levels, in words” value [2] was “did not change frataxin mRNA levels”, the genes down regulated [3] was “no genes” and the genes up regulated [3] was “two genes”. The “number of genes” value ([3]; 7 days) was “two genes”, the “frataxin mRNA as % of the level in the normal cell line” value ([4]; GM15850, 2 μM) was no more than 45% and the “range of fold increases of frataxin mRNA in numerous experiments” value ([4]; GM15850, 2 μM) was 2.0 to 3.6 fold. The “increase of frataxin mRNA level” value ([4]; GM15850, 2 μM, 7 days, relative to GAPDH) was 2.5 fold, the “effect on frataxin mRNA levels, in words” value [4] was “increased frataxin mRNA levels” and the “time for frataxin mRNA to decrease to pre-treatment levels after removal of polyamide” value ([4]; after induction 7 days, transfer to fresh medium lacking polyamide) was 96 h. The “effect of higher concentrations or longer incubation on frataxin transcription” value ([4]; compared with 2 μM, 7-day incubation) was “Neither higher concentrations of FA1 nor longer incubations times increased frataxin transcription”.
With `CN(C)CCCNC(=O)CCNC(=O)c1cc(NC(=O)CCNC(=O)c2nc(NC(=O)c3nc(NC(=O)CCNC(=O)c4cc(NC(=O)c5nccn5C)cn4C)cn3C)cn2C)cn1C` [FA2, ImPyβImImβPyβDp] the “transcript levels for frataxin (microarray)” value ([1]; 2 μM, 7 days) was “not changed”, the “number of genes” value ([1]; 2 μM, 7 days) was “three genes” and the “gene expression profile approaching that of untreated GM15851 cells, in words” value [1] was “not seen”. For the same compound, the “effect on frataxin mRNA levels, in words” value [2] was “no change in frataxin mRNA”, the “transcript levels for frataxin (microarray)” value ([3]; 2 μM, 7 days) was “not changed” and the “number of genes” value ([3]; 7 days) was “one gene”. The “effect on frataxin mRNA levels, in words” value [4] was “modest increase in frataxin transcription”.
